Test results published in patent US20050227220A1, “Compositions and Methods for Evaluating and Designing Nuclear Receptor Ligands that Modulate Co-Regulator Affinity” (priority 2002, published 2005).

Tests used:
PPARα LBD = target: T1, PPARα LBD (Homo sapiens, UniProt Q07869); assay: FRET assay: ligand effect on CBP fragment / NCoR ID-C binding to PPAR LBD; type: biochemical; conditions: 10 nM PPAR LBD; for effect on apparent affinity of PPARα for the co-activator fragment from CBP: CBP (57-454)
T1 construct: made in house; host or cells: bacterial BL21-DE3, vector pRSETA
T1 sequence (Q07869 192-468): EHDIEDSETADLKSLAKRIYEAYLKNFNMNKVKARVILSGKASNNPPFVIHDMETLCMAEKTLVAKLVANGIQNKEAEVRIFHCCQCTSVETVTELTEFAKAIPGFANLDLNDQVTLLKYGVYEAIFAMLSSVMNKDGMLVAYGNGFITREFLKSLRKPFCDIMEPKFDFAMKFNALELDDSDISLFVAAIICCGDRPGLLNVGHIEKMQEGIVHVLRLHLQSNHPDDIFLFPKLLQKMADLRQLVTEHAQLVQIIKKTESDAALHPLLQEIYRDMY
Source text: (§1) The experimentally determined α value is the ratio of cofactor affinities in the presence and absence of a saturating concentration of ligand. This analysis permits a direct comparison of the effects of compounds, independent of cofactor concentration and differences in coregulator affinity for the individual receptors. […] 98(9): p.
(§2) The effects of the coregulator environment on the apparent affinities and selectivities of various ligands were than examined. Experimentally determined pKs and the α values derived from the FRET assay were used to calculate the apparent affinity of the ligand for the receptor/cofactor complex (i.e. K/α).
(§3) FIG. 5 illustrates the effect of ligands on coactivator and corepressor binding to PPAR subtypes determined by FRET.

full length human PPARα = target: T2, full length human PPARα (Homo sapiens, UniProt Q07869); assay: Mammalian two-hybrid assay (CV-1 cells); type: cell-based; conditions: VP16-PPARα, GAL4-NCoR (2239-2300), result in words
T2 construct: expressed in transfected cells; host or cells: CV-1 cells, vector pVP16 (Clonetech)
T2 sequence (Q07869 1-468): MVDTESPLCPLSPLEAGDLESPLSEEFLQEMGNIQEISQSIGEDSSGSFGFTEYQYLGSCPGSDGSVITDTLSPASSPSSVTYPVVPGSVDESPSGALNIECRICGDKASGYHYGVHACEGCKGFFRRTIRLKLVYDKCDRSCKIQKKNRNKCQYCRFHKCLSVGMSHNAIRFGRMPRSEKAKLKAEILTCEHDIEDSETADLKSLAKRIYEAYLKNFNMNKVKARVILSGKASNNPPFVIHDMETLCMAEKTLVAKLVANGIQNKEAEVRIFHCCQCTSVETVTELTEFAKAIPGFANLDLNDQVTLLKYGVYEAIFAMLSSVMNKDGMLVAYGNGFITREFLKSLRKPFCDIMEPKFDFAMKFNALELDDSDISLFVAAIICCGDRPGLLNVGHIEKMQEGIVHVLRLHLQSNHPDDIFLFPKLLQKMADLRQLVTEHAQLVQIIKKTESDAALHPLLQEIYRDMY
Source text: Mammalian two-hybrid assays were used to examine the ability of the tyrosine-based class of PPAR ligands to promote association or dissociation of the co-activator CBP and the corepressor NCoR in the context of a cellular environment. The assays for the three PPAR subtypes used full length human PPARα, PPARγ2 or PPARδ fused to the activation domain of VP16 and previously identified interaction domains of CBP and NCoR fused to the DNA binding domain of GAL4.
Expression plasmids for the VP16-human PPAR constructs were prepared by inserting amplified cDNAs encoding full length PPARα, PPARγ2 and PPARδ fused to amino acids 410-490 of the VP16 viral activation domain, into the expression vector pVP16 (Clonetech). […] The reporter plasmid was (UAS)5-tk-SPAP, and the internal control plasmid for all transfections was β-galactosidase expression vector (pCH110, Amersham).
CV-1 cells were maintained in culture in DME high glucose medium supplemented with 10% FBS and 2 mM glutamine in a humidified incubator (5% CO2 in air) at 37° C. Cells were harvested 72 hours prior to experimental use and placed in phenol red free D-MEM/F-12 medium with 15 mM HEPES supplemented with 10% charcoal/dextran-treated FBS (HyClone, Logan, Utah). The cells were harvested and seeded at 2.0×10^4 cell per well in a 96-well plate the day prior to transfection. Cells were transfected for 16 hr using Lipofectamine (Life Technologies, Inc., Rockville, Md.) essentially according to the manufacturer's instructions. The total amount of DNA transfected into each well was 80 ng. Transfection mixtures contained 8 ng VP16-PPAR plasmid, 8 ng SPAP reporter, 25 ng of pCH110(β-galactosidase) control plasmid, 35 ng of pBluescript II KS+ (Clonetech) and 4 ng of either coactivator or corepressor plasmid. Transfection quantities for full length PPAR and cofactor plasmids were optimized to generate a signal that was half of the maximal activation. These conditions would allow for dissociation or association to be experimentally determined for each ligand evaluated. Stock solutions of drugs were prepated in DMSO and dilutions were made in phenol red-free D-MEM/F-12 with 15 mM HEPES supplemented with 10% charcoal stripped, delipidated, heat inactivated (62° C. for 35 min) bovine calf serum (Sigma, St. Louis, Mo.) such that the final concentration of DMSO was 0.1%. Transfection mixtures were aspirated and 100 μl, of medium containing drug was added to each well.

PPARδ LBD = target: T3, PPARδ LBD (Homo sapiens, UniProt Q03181); assay: FRET assay: ligand effect on CBP fragment / NCoR ID-C binding to PPAR LBD; type: biochemical; conditions: 10 nM PPAR LBD, CBP (57-454)
T3 construct: made in house; host or cells: bacterial BL21-DE3, vector pRSETA
T3 sequence (Q03181 139-441): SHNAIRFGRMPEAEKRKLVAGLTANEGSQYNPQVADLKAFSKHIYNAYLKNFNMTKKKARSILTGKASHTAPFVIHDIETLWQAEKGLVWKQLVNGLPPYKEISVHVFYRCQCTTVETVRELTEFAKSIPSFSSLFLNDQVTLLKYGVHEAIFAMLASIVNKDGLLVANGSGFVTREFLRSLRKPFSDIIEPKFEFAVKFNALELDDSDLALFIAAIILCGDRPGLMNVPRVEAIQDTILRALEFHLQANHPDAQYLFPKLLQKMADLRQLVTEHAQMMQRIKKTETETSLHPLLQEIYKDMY
Source text: as §1, §2, §3

PPARδ LBD / RXRα LBD = target: T4, PPARδ LBD / RXRα LBD (Homo sapiens, UniProt Q03181); assay: FRET assay: ligand effect on RXRα LBD binding to PPAR LBD; conditions: 10 nM PPAR LBD, 4 concentrations of RXR
T4 sequence (Q03181 139-441): T3 sequence (Q03181 139-441)
T4 sequence (P19793 225-462 partner limits assumed): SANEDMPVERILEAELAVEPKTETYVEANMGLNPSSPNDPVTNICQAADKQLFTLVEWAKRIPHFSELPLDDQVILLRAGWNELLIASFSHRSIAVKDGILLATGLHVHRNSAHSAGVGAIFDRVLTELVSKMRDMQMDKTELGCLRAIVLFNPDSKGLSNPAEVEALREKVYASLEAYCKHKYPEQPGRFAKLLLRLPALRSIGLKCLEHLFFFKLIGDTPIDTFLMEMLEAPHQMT

GAL4-CBP (1-115) = GAL4-CBP (1-115) (UniProt P04386 1-147; P45481 1-115); assay: cell-based or functional assay

C/C(=C/C(=O)c1ccccc1)N[C@@H](Cc1ccc(OCCc2nc(-c3ccccc3)oc2C)cc1)C(=O)O [GW9544]
effect on apparent affinity of PPARα for the co-activator fragment from CBP (PPARα LBD): increased the apparent affinity

CCC(=O)NC[C@H](Cc1ccc(OCCc2nc(-c3ccccc3)oc2C)cc1)N/C(C)=C\C(=O)c1ccc(C(F)(F)F)cc1 [GW6471]
effect on PPARα interaction with NCoR (full length human PPARα): modulation of co-repressor interaction was seen

Cc1cc(SCc2sc(-c3ccc(C(F)(F)F)cc3)nc2C)ccc1OCC(=O)O [GW1516]
effect on apparent affinity of PPARα for the co-activator fragment from CBP (PPARα LBD): increased the apparent affinity | effect on affinity of PPARα for the co-repressor peptide (PPARα LBD; NCoR ID-C): decreased the affinity

Cc1oc(-c2ccccc2)nc1CCOc1ccc(C[C@H](Nc2ccccc2C(=O)c2ccccc2)C(=O)O)cc1 [GW2570, farglitazar]
effect on apparent affinity of PPARδ for the co-activator fragment from CBP (PPARδ LBD): increased the apparent affinity | effect on apparent affinity of PPARα for the co-activator fragment from CBP (PPARα LBD): increased the apparent affinity | promotion of association of PPARδ with RXR (PPARδ LBD / RXRα LBD): most effective

B1: VP16-human PPARδ (full length) (other)
chain: LSTAPPTDVSLGDELHLDGEDVAMAHADALDDFDLDMLGDGDSPGPGFTPHDSAPYGALDMADFEFEQMFTDALGIDEYGGMEQPQEEAPEVREEEEKEEVAEAEGAPELNGGPQHALPSSSYTDLSRSSSPPSLLDQLQMGCDGASCGSLNMECRVCGDKASGFHYGVHACEGCKGFFRRTIRMKLEYEKCERSCKIQKKNRNKCQYCRFQKCLALGMSHNAIRFGRMPEAEKRKLVAGLTANEGSQYNPQVADLKAFSKHIYNAYLKNFNMTKKKARSILTGKASHTAPFVIHDIETLWQAEKGLVWKQLVNGLPPYKEISVHVFYRCQCTTVETVRELTEFAKSIPSFSSLFLNDQVTLLKYGVHEAIFAMLASIVNKDGLLVANGSGFVTREFLRSLRKPFSDIIEPKFEFAVKFNALELDDSDLALFIAAIILCGDRPGLMNVPRVEAIQDTILRALEFHLQANHPDAQYLFPKLLQKMADLRQLVTEHAQMMQRIKKTETETSLHPLLQEIYKDMY
mammalian two-hybrid reporter, fold association with GW1929 and GW7845 (GAL4-CBP (1-115)): ~2 fold
